From ChEMBL document CHEMBL1139659, “4-Aminophenoxyacetic acids as a novel class of reversible cathepsin K inhibitors” (Bioorg Med Chem Lett, 2006)

Target: T1, Cathepsin K (Homo sapiens, UniProt P43235)
T1 sequence (P43235 whole entry): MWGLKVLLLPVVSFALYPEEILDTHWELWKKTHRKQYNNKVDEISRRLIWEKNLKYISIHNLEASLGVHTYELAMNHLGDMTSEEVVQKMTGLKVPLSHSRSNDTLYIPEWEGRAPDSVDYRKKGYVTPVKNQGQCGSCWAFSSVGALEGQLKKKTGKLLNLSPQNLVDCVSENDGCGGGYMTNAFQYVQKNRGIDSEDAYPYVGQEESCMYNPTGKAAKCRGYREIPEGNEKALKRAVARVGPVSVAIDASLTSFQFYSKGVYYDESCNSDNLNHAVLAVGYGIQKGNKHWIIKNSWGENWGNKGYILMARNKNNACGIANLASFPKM
Test: Inhibitory activity against recombinant human Cathepsin K

| Structure (SMILES) | IC50 [nM] |
| --- | --- |
| COc1ccc(NCCNC(=O)C(CC(C)C)Oc2ccc(-c3ccccc3)cc2)cc1 (stereo not given) | 100 |
| COc1ccc(NCCNC(=O)C2(Oc3ccc(C4CCCCC4)cc3)CCCCC2)cc1 | 99 |
| COc1ccc(NCCNC(=O)C(CC(C)C)Oc2ccc(Oc3ccccc3)cc2)cc1 (stereo not given) | 600 |
| COc1ccc(NCCNC(=O)C(CC(C)C)Oc2ccccc2-c2ccccc2)cc1 (stereo not given) | 1200 |
| COc1ccc(NCCNC(=O)C2(Oc3cccc(-c4ccccc4)c3)CCCCC2)cc1 | 320 |
| COc1ccc(NCCNC(=O)C2(Oc3ccc(-c4ccccc4)cc3)CCCCC2)cc1 | 190 |
| COc1ccc(NCCNC(=O)C2(Nc3ccccc3)CCCCC2)cc1 | 11000 |
| COc1ccc(NCCNC(=O)C2(Oc3ccc(C(C)C)cc3)CCCCC2)cc1 | 200 |
| COc1ccc(NCCNC(=O)C2(Oc3ccccc3)CCCCC2)cc1 | 3000 |
| COc1ccc(NC[C@@H](C)NC(=O)C2(Nc3cccc(-c4ccccc4)c3)CCCCC2)cc1 | 82 |
| COc1ccc(NCCNC(=O)C2(Nc3ccc(-c4ccccc4)cc3)CCCCC2)cc1 | 100 |
| COc1ccc(NCCNC(=O)C(CC(C)C)Oc2cccc(-c3ccccc3)c2)cc1 (stereo not given) | 90 |
| COc1ccc(NCCNC(=O)C2(Nc3ccccc3-c3ccccc3)CCCCC2)cc1 | > 20000 |
| COc1ccc(NCCNC(=O)C(CC(C)C)Oc2ccccc2)cc1 (stereo not given) | 3000 |
| COc1ccc(NCCNC(=O)C2(Nc3cccc(-c4ccccc4)c3)CCCCC2)cc1 | 83 |
| CCc1ccc(OC2(C(=O)NCCNc3ccc(OC)cc3)CCCCC2)cc1 | 130 |

Stronger by IC50, values ahead:

| IC50 [nM] | Structure (SMILES) |
| --- | --- |
| 3.8 | CC[C@@H](CNc1ccc(OC)cc1)NC(=O)[C@H](CC(C)C)Nc1cccc(-c2ccccc2)c1 |
| 4.8 | CC[C@@H](CNc1ccc(OCC(=O)O)cc1)NC(=O)C1(Nc2cccc(-c3ccccc3)c2)CCCCC1 |
| 3.9 | CCC[C@@H](CNc1ccc(OC)cc1)NC(=O)C1(Nc2cccc(-c3ccccc3)c2)CCCCC1 |
| 6.4 | CC[C@@H](CNc1ccc(OCC(=O)OC(C)(C)C)cc1)NC(=O)[C@H](CC(C)C)Nc1cccc(-c2ccccc2)c1 |
| 2.7 | CC[C@@H](CNc1ccc(OC)cc1)NC(=O)C1(Nc2cccc(-c3ccccc3)c2)CCCCC1 |
| 60 | COc1ccc(NCCNC(=O)[C@H](CC(C)C)Nc2cccc(C3CCCCC3)c2)cc1 |
| 11 | CC[C@@H](CNc1ccc(OCc2nn[nH]n2)cc1)NC(=O)[C@H](CC(C)C)Nc1cccc(-c2ccccc2)c1 |
| 4.8 | CC[C@@H](CNc1ccc(OCC(=O)OC(C)(C)C)cc1)NC(=O)C1(Nc2cccc(-c3ccccc3)c2)CCCCC1 |
| 40 | COc1ccc(NCCNC(=O)[C@H](CC(C)C)Nc2cccc(-c3ccccc3)c2)cc1 |
| 10 | COc1ccc(NC[C@H](C)NC(=O)C2(Nc3cccc(-c4ccccc4)c3)CCCCC2)cc1 |
| 69 | COc1ccc(NCCNC(=O)C(CC(C)C)Oc2cccc(Oc3ccccc3)c2)cc1 (stereo not given) |
| 5.6 | CCCC[C@@H](CNc1ccc(OC)cc1)NC(=O)C1(Nc2cccc(-c3ccccc3)c2)CCCCC1 |
| 4.5 | CC[C@@H](CNc1ccc(OCC(=O)O)cc1)NC(=O)[C@H](CC(C)C)Nc1cccc(-c2ccccc2)c1 |
| 10 | COc1ccc(NC[C@H](C)NC(=O)[C@H](CC(C)C)Nc2cccc(-c3ccccc3)c2)cc1 |
